Assays:
[1] = target: T1, PD-1/PD-L1 binding (Homo sapiens, UniProt Q9NZQ7); experiment: HTRF inhibition of PD-1/PD-L1 binding in vitro; conditions: His-PD-1 100 nM, PD-L1-Fc 2 nM, read-out: IC50 inhibiting PD-1/PD-L1 binding in vitro
T1 construct: purchased Sino Biological Inc. 10084-H02H-100 (PD-L1-Fc); 10377-H08H-50 (His-PD-1)
Description: Homogeneous Time-Resolved Fluorescence (HTRF): This method used the recombinant human PD-L1 protein fused to express the hFc tag and the recombinant human PD-1 protein fused to express the His tag, both of which were interacting ligands and receptors. When the anti-hFc antibody containing Eu element chelation marker and the anti-His antibody labeled with XL665 fluorescein were bound with the above two corresponding labels, and excited by a laser with a wavelength of 320 nm, the ligand-receptor binding enabled the energy to be transferred from the Eu element to the XL665 fluorescein, which was excited to emit light at a wavelength of 665 nm. However, when an inhibitor of the interaction between PD-L1 and PD-1 was added, the binding of the ligand to the receptor was destroyed, so that the distance between Eu and XL665 was far away, the energy cannot be transferred, and XL665 would not be excited.
Recombinant human PD-1 protein with His tag (His-PD-1 protein, Cat #: 10377-H08H-50), and recombinant human PD-L1-Fc fusion protein (PD-L1-Fc fusion protein, Cat #: 10084-H02H-100) were purchased from Sino Biological Inc., […] and anti-His-XL665 antibody were purchased from Cisbio Company, and other related reagents such as dilution buffer (Diluent buffer 5, Cat #: 62DL5DDC), detection buffer (PPI-Europium detection buffer, Cat #: 61DB9RDF) were purchased from Cisbio Company. Fluorescence detection instrument Tecan (Spark 10 M) was purchased from Switzerland Tecan Company.
(1) Experimental preparation: The test compound was diluted with dilution buffer into different concentration gradients (the highest final concentration in 20 μL final reaction system was 10 μM), His-PD-1 protein was diluted to 800 nM (the final concentration in 20 μL final reaction system was 100 nM), and the PD-L1-Fc fusion protein was diluted to 16 nM (final concentration was 2 nM). The anti-His-XL665 antibody and anti-hFc-Eu^3+ antibody were respectively diluted 20 times and 100 times using the detection buffer according to the reagent requirements.
(2) 5 μL of test compound, 2.5 μL of PD-L1-Fc fusion protein and 2.5 μL of His-PD-1 protein solution were mixed, and incubated at room temperature for 15 min. Then the system was added with 5 μL of anti-His-XL665 antibody and 5 μL of anti-hFc-Eu^3+ antibody, incubated for another 3 h, and then detected.
(3) When detecting the reaction, a control group was also provided, including a 0% inhibition positive control without adding test compounds and a 100% inhibition negative control without adding PD-1 protein. All detections were performed with duplicates.
(4) The fluorescence signal of each well was measured using a fluorescence detector Tecan (Spark 10M) at an excitation wavelength of 320 nm, and emission wavelengths of 620 nm and 665 nm, respectively. The intensity of the mutual binding of PD-1 and PD-L1 referred to the ratio of fluorescence signals Em665/Em620.
(5) The binding inhibition rate of the test compound was calculated as follows: Inhibition rate (%)=[1−(Fluorescence signal ratio of detection well-fluorescence signal ratio of 100% inhibition negative control)]/(fluorescence signal ratio of 0% inhibition positive control-fluorescence signal ratio of 100% inhibition negative control)×100%. After calculating the inhibition rate on PD-1/PD-L1 binding of the test compounds with different concentration gradients, the 50% inhibitory concentration (IC50) was calculated.

[2] = Pharmacokinetic assay after repeated oral administration; assay type: in vivo, B-hPD-1/hPD-L1 mice; conditions: female, B-hPD-1/hPD-L1, mouse; plasma, 50 mg/kg oral once a day, after administration on the 18th day
Protocol: Twenty-four female B-hPD-1/hPD-L1 mice aged 6-8 weeks were purchased from Biocytogen Jiangsu Gene Biotechnology Co., Ltd. The mice were randomly divided into 4 groups, 6 mice in each group. The test compounds were prepared in a vehicle containing 5% DMSO, 60% PEG400 and 35% purified water, including I-1 and 3 control molecules Example 17, Compound 14 (INCB086550), and Example 180. The compounds were administered orally at 50 mg/kg, once a day. The blood was collected alternately through the fundus venous plexus after the administration on the 18th day. The blood collection time points were 15 min, 30 min, 1 h, 2 h, 4 h, 8h, 24 h and 32h. About 0.1 mL of blood was collected in a centrifuge tube (anticoagulated with sodium heparin), and centrifuged at 5000 rpm for 5 min. Then the plasma was separated, and frozen at −20° C. for later detection. After the plasma samples were processed, the concentration of the compounds in the plasma was determined by liquid chromatography-mass spectrometry (LC-MS/MS). The pharmacokinetic parameters were calculated using Phoenix WinNonlin 7.0.

[3] = Tumor tissue distribution assay in MC38-PD-L1 tumor-bearing mice; assay type: in vivo, B-hPD-1/hPD-L1 humanized mice; conditions: 50 mg/kg oral once/day
Description: 16 B-hPD-1/hPD-L1 humanized female mice, aged 6-8 weeks were purchased from Biocytogen Jiangsu Gene Biotechnology Co., Ltd. After 1 week of adaptation, the mice were subcutaneously inoculated with MC38-PD-L1 cells at 2×10^6 cells/site. After the tumor grew to about […], the mice were divided into 4 groups, 4 mice in each group. The test compounds were formulated in a vehicle containing 5% DMSO, 60% PEG400 and 35% purified water, including I-1 and 3 control molecules Example 17, Compound 14 (INCB086550), and Example 180. The compounds were orally administered at 50 mg/kg, once/day. The blood and tumor tissue were collected 4 h and 24 h after administration on the 18th day. A certain amount of tissue was weighed, and added with phosphate-buffered saline (PBS) solution for homogenization. After the sample was processed, it was analyzed by LC-MS/MS to determine the concentration of the compound in plasma and tissue.

T1 sequence (Q9NZQ7 19-239 limits assumed): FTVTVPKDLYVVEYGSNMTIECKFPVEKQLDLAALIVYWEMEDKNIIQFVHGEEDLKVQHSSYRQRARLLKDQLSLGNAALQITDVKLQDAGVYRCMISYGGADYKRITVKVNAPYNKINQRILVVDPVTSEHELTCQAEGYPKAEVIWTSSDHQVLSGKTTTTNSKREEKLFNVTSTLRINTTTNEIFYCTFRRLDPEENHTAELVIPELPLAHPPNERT

IC50 [1]: 0.72 nM
AUC(0-t) [2]: 123 µg·h/mL
MRT [2]: 13.5 h
half-life [2]: 10.3 h
Ratio of I-1 to control molecule (tumor tissue concentration) ([3]; 4 h after administration on the 18th day): 1.0
Ratio of I-1 to control molecule (tumor tissue concentration) ([3]; 24 h after administration on the 18th day): 1.0
concentration at 4 h ([3]; female, B-hPD-1/hPD-L1 humanized, mouse, tumor tissue, 4 h after administration on the 18th day): 39200 ng/g
concentration at 24 h ([3]; female, B-hPD-1/hPD-L1 humanized, mouse, tumor tissue, 24 h after administration on the 18th day): 27200 ng/g
SMILES: [2H]C([2H])([2H])OCC12CCC(CCN3CCc4c(nc(C(=O)Nc5cccc(-c6cccc(NC(=O)c7nc8c(n7C)CCN(CCC79CCC(C(=O)O)(CC7)C9)C8)c6Cl)c5Cl)n4C)C3)(CC1)C2 [Compound I-1, 4-(2-(2-((2,2′-dichloro-3′-(5-(2-(4-((methoxy-d3)methyl)bicyclo[2.2.1]heptane-1-yl)ethyl)-1-methyl-4,5,6,7-tetrahydro-1H-imidazo[4,5-c]pyridine-2-carboxamido)-[1,1′-biphenyl]-3-yl)carbamoyl)-1-methyl-1,4,6,7-tetrahydro-5H-imidazo[4,5-c]pyridin-5-yl)ethyl)bicyclo[2.2.1]heptane-1-carboxylic acid]

From patent publication US20260234164A1, “BIPHENYL COMPOUND AS IMMUNOMODULATOR, PREPARATION METHOD THEREFOR AND USE THEREOF” (SHENZHEN CHIPSCREEN BIOSCIENCES CO., LTD., priority 2021, published 2026)
